From patent publication EP0358494B1, “Emulsifiable concentrate of a pesticide” (priority 1988, dated 1990) come the findings set out here.

Like-named read-outs stand apart in the source and are kept apart here.

This data set is described as follows: Solubility of water in the cosolvent (Table 1). The format is physicochemical. As to the method:
All of the compositions were prepared by simple mechanical agitation of the ingredients together, using a Silveron (Trade Mark) high shear mixer. The nature and water solubility of the various cosolvents employed are as noted in Table 1.

Where [1] appears, read: the cosolvent itself (neat solvent).

Turning to `COC(C)COC(C)CO` (centres unmarked) [Dipropylene glycol monomethyl ether], the “Solubility of water in solvent (H20/Solv)” value (from here on “Solubility … (H20/Solv)”) is given as “miscible”.

As to `CCOP(=S)(OCC)Oc1nc(Cl)c(Cl)cc1Cl` [chlorpyrifos], the “Solubility … (H20/Solv)” value was “.0002% w/w”.

For the compound xylene, the “Solubility … (H20/Solv)” value was 0.87% w/w.

For the compound `CCSCc1ccccc1OC(=O)NC` [ethiofencarb], under setting [1], the “Solubility … (H20/Solv)” value stood at 0.18% w/w.

For the compound `COP(=S)(OC)Oc1ccc([N+](=O)[O-])c(C)c1` [fenitrothion], under setting [1], the “Solubility … (H20/Solv)” value came to 0.0014% w/w.
